# Data reported in patent US8329645B2, “Polymyxin derivatives and uses thereof” (priority 2008, dated 2012).
# Key:
# E. cloacae F230 = assay: E-test MIC with or without NAB7061 (4 μg/ml), Mueller-Hinton agar; type: cell-based, Enterobacter cloacae
# Summary of the method: (§1)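 E-strip MIC determination, run as instructed by the manufacturer.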
# E. cloacae F232 = assay: as above; type: cell-based, Enterobacter cloacae
# Summary of the method: as §1
# E. cloacae ATCC23355 = assay: as above; type: cell-based, Enterobacter cloacae
# Summary of the method: as §1
# E. cloacae CCUG52947 = assay: as above; type: cell-based, Enterobacter cloacae
# Summary of the method: as §1
# P. aeruginosa ATCC 27853 = assay: E-test MIC of antibiotics on Mueller Hinton agar containing increasing concentrations of NAB739; type: cell-based, Pseudomonas aeruginosa
# P. aeruginosa ATCC27853 = assay: E-test MIC with or without NAB7061 (4 μg/ml), Mueller-Hinton agar; type: cell-based, Pseudomonas aeruginosa
# Procedure: (§2) MICs were determined by using E-strips (Biodisk Ltd., Solna, Sweden) according to the manufacturer's instructions.
# (§3) The strains originated from ATCC (11 strains), CCUG (11 strains), and NCTC (The National Collection of Type Cultures, Colindale, U.K.; 2 strains). Eight strains (the F-strains) were purchased from Mobidiag Ltd., Helsinki, Finland.
# P. aeruginosa F58 = assay: as above; type: cell-based, Pseudomonas aeruginosa
# Procedure: as §2, §3
# P. aeruginosa CCUG51971 = assay: as above; type: cell-based, Pseudomonas aeruginosa
# Procedure: as §2, §3
# E. coli IH3080 [1] = assay: as above; type: cell-based, Escherichia coli
# Summary of the method: as §1
# E. coli CCUG41429 = assay: as above; type: cell-based, Escherichia coli
# Summary of the method: as §1
# E. coli CCUG41421 = assay: as above; type: cell-based, Escherichia coli
# Summary of the method: as §1
# E. coli CCUG41427 = assay: as above; type: cell-based, Escherichia coli
# Summary of the method: as §1
# E. coli CCUG41432 = assay: as above; type: cell-based, Escherichia coli
# Summary of the method: as §1
# E. coli NCTC13353 = assay: as above; type: cell-based, Escherichia coli
# Summary of the method: as §1
# E. coli CCUG41422 = assay: as above; type: cell-based, Escherichia coli
# Summary of the method: as §1
# E. coli CCUG41425 = assay: as above; type: cell-based, Escherichia coli
# Summary of the method: as §1
# E. coli CCUG41424 = assay: as above; type: cell-based, Escherichia coli
# Summary of the method: as §1
# E. coli NCTC13351 = assay: as above; type: cell-based, Escherichia coli
# Summary of the method: as §1
# E. coli IH3080 [2] = assay: Sensitization to rifampin: growth inhibition around wells on LB plates containing rifampin; type: cell-based, Escherichia coli; details: in the absence of the compounds tested
smiles,measurement,setting,value
CO[C@H]1/C=C/O[C@@]2(C)Oc3c(C)c(O)c4c(O)c(c(/C=N/N5CCN(C)CC5)c(O)c4c3C2=O)NC(=O)/C(C)=C\C=C\[C@H](C)[C@H](O)[C@@H](C)[C@@H](O)[C@@H](C)[C@H](OC(C)=O)[C@@H]1C [Rifampin],MIC of antibiotic in the presence of 4 μg/ml of NAB 7061,E. cloacae F230,0.016 to 0.032 µg/mL
same,Sensitization factor to antibiotic (MIC without / with 4 μg/ml of NAB 7061),E. cloacae F230,1500
same,MIC of antibiotic in the presence of 4 μg/ml of NAB 7061,E. cloacae F232,0.023 µg/mL
same,Sensitization factor to antibiotic (MIC without / with 4 μg/ml of NAB 7061),E. cloacae F232,1400
same,MIC of antibiotic in the presence of 4 μg/ml of NAB 7061,E. cloacae ATCC23355,0.008 to 0.016 µg/mL
same,Sensitization factor to antibiotic (MIC without / with 4 μg/ml of NAB 7061),E. cloacae ATCC23355,750-1500
same,MIC of antibiotic in the presence of 4 μg/ml of NAB 7061,E. cloacae CCUG52947,0.032 to 0.047 µg/mL
same,Sensitization factor to antibiotic (MIC without / with 4 μg/ml of NAB 7061),E. cloacae CCUG52947,500-1000
same,MIC of antibiotic in the presence of NAB739,P. aeruginosa ATCC 27853; NAB 739 0 μg/ml,32 µg/mL
same,MIC of antibiotic in the presence of NAB739,P. aeruginosa ATCC 27853; NAB 739 0.5 μg/ml,32 µg/mL
same,MIC of antibiotic in the presence of NAB739,P. aeruginosa ATCC 27853; NAB 739 1 μg/ml,16 µg/mL
same,MIC of antibiotic in the presence of NAB739,P. aeruginosa ATCC 27853; NAB 739 2 μg/ml,4 µg/mL
same,MIC of antibiotic in the presence of NAB739,P. aeruginosa ATCC 27853; NAB 739 […],32 µg/mL
same,MIC of antibiotic in the presence of 4 μg/ml of NAB 7061,P. aeruginosa ATCC27853,12 to 16 µg/mL
same,Sensitization factor to antibiotic (MIC without / with 4 μg/ml of NAB 7061),P. aeruginosa ATCC27853,2
same,MIC of antibiotic in the presence of 4 μg/ml of NAB 7061,P. aeruginosa F58,>32 µg/mL
same,Sensitization factor to antibiotic (MIC without / with 4 μg/ml of NAB 7061),P. aeruginosa F58,<2
same,MIC of antibiotic in the presence of 4 μg/ml of NAB 7061,P. aeruginosa CCUG51971,>32 µg/mL
same,Sensitization factor to antibiotic (MIC without / with 4 μg/ml of NAB 7061),P. aeruginosa CCUG51971,<2
same,MIC of antibiotic in the presence of 4 μg/ml of NAB 7061,E. coli IH3080 [1],0.023 to 0.047 µg/mL
same,Sensitization factor to antibiotic (MIC without / with 4 μg/ml of NAB 7061),E. coli IH3080 [1],170-350
same,MIC of antibiotic in the presence of 4 μg/ml of NAB 7061,E. coli CCUG41429,0.032 µg/mL
same,MIC of antibiotic in the presence of 4 μg/ml of NAB 7061,E. coli CCUG41421,0.032 to 0.064 µg/mL
same,MIC of antibiotic in the presence of 4 μg/ml of NAB 7061,E. coli CCUG41427,0.032 to 0.064 µg/mL
same,Sensitization factor to antibiotic (MIC without / with 4 μg/ml of NAB 7061),E. coli CCUG41427,100-250
same,MIC of antibiotic in the presence of 4 μg/ml of NAB 7061,E. coli CCUG41432,0.032 µg/mL
same,Sensitization factor to antibiotic (MIC without / with 4 μg/ml of NAB 7061),E. coli CCUG41432,180-250
same,MIC of antibiotic in the presence of 4 μg/ml of NAB 7061,E. coli NCTC13353,0.064 µg/mL
same,Sensitization factor to antibiotic (MIC without / with 4 μg/ml of NAB 7061),E. coli CCUG41422,170-256
same,MIC of antibiotic in the presence of 4 μg/ml of NAB 7061,E. coli CCUG41425,0.016 to 0.023 µg/mL
same,Sensitization factor to antibiotic (MIC without / with 4 μg/ml of NAB 7061),E. coli CCUG41425,200-260
same,MIC of antibiotic in the presence of 4 μg/ml of NAB 7061,E. coli CCUG41424,0.064 to 0.094 µg/mL
same,Sensitization factor to antibiotic (MIC without / with 4 μg/ml of NAB 7061),E. coli CCUG41424,85-94
same,MIC of antibiotic in the presence of 4 μg/ml of NAB 7061,E. coli NCTC13351,0.032 to 0.047 µg/mL
same,Sensitization factor to antibiotic (MIC without / with 4 μg/ml of NAB 7061),E. coli NCTC13351,340-500
same,concentration of rifampin needed for the inhibitory effect,E. coli IH3080 [2],10 µg/mL
